Source: ChEMBL document CHEMBL1158333, “New diterpenes from the South African soft coral Eleutherobia aurea” (1997)

experiment: Antiinflammatory activity in rabbit neutrophils assessed as inhibition of fMLP-induced superoxide radical anion generation at 20 ug/mL; format: functional; details: Oryctolagus cuniculus, Neutrophil

Compound	inhibition at 20 µg/mL [%]
C=C1CC/C=C(\C)CC[C@@H]2C(C(CC=C(C)C)OC(C)=O)=CO[C@H](OC(C)=O)[C@@H]12 (stereo partly drawn)	> 90
C=C(C)C(CC(OC(C)=O)C1=CO[C@H](OC(C)=O)[C@H]2C(=C)CC[C@@H]3O[C@@]3(C)CC[C@H]12)OC(C)=O (stereo partly drawn) [7,8-EPOXYZAHAVIN A]	> 90
C=C(C)C(CC(OC(C)=O)C1=CO[C@H](OC(C)=O)[C@H]2C(=C)CC/C=C(\C)CC[C@H]12)OC(C)=O (stereo partly drawn) [ZAHAVIN A]	> 90
